Data published in patent US20090238810A1, “OPHTHALMIC COMPOSITION” (Menicon Co., Ltd., priority 2006, published 2009).

Tests used:
[1] = system: corneal epithelium of DE mice; test: Corneal fluorescein staining in experimental mouse model of dry eye (DE mice); format: in vivo, C57BL/6J mice
Experimental: (§1) C57BL/6J mice aged 10 to 12 weeks were used for studies. All the studies were performed in accordance with the ARVO Statement for the Use of Animals in Ophthalmic and Vision Research.
(§2) The mice were subcutaneously injected with 0.5 mg/0.2 ml of scopolamine hydrobromide four times a day for 5 days. Desiccating environmental stress was created by placing a mouse cage in a blower hood with continuous air flow blower (room temperature of […] and relative humidity of 60%±10%). Tear production of each mouse was evaluated before the treatment, and also evaluated on third and fifth days of the treatment.
(§3) During the desiccation treatment, one of the eyes of each mouse was treated with eye drops including ApoA1 (Sigma-Aldrich, Japan) or with eye drops including ApoA1 and D-pantethine (Sigma-Aldrich, Japan), while PBS was administrated to the other eye of each mouse as a control. 5 μl of the respective eye drops was administered four times a day during the desiccation treatment for five days. All the ophthalmic compositions were formulated in PBS, and the osmolarity and the pH value of the compositions were adjusted to 290 to 300 mOsm/L and pH 7.4, respectively. […] To prepare one liter of 0.01 M PBS, there are needed the followings:
Corneal fluorescein staining was evaluated 10 minutes after topical application of 1 μL of 1% sodium fluorescein (Sigma-Aldrich, Japan) to mouse eyes, which were treated as described above, and examined under a light microscope (Leica Microsystems Inc., Deerfield, USA) and photographed with a digital camera (CAMEDIA, Olympus Optical Co. Ltd., Japan) fitted to the microscope.
In TABLES 2 and 3 below, X represents a ratio of an area which was subjected to a punctuate staining to a total area of a cornea.

[2] = system: corneal epithelium of DE mice; test: Histopathologic study: corneal epithelial thickness in DE mice; format: in vivo, C57BL/6J mice
Experimental: as §1, §2, §3
Mice eyeballs were surgically excised, and fixed with neutral-buffered formalin (10%) and embedded in paraffin. Then, 5 μm thick histological sections were cut and stained with hematoxylin and eosin. […] Microphotometric measurement of the thickness was done by using OB-M, 1/100, micro, AX0001 (Olympus Optical Co. Ltd., Japan). The corneal epithelial thickness was measured to an accuracy of 10 μm.
In this EXAMPLE, there were used 6 to 8 corneas of each of the following groups of mice: (a) normal mice, (b) DE mice, (c) DE mice treated with 0.04 w/v % of ApoA1, and (d) DE mice treated with PBS.

[3] = DE mice, various concentrations

## apolipoprotein A-1 [ApoA1]
[1]; 0.01, 0.04 or 0.1 w/v % ApoA1 tested, DE mice (FIG. 10)
  most effective concentration of ApoA1, corneal staining scores: 0.1 w/v %
[1]; [3]
  conclusion of corneal fluorescein staining experiments: effect on dry eye syndrome: significantly effective
[1]; eye drops 0.04 w/v % ApoA1, 5 μl four times a day for five days, six DE mice, other eye PBS (FIG. 8)
  average corneal staining score, less than that of the PBS group: about 25%
[1]; eye drops 0.04 w/v % ApoA1, DE mice
  effect on corneal epithelium erosion due to desiccation (grading scores and quantitative measurement): protective effects
[1]; eye drops 0.04 w/v % ApoA1, DE mice, data not shown
  quantitative measurement of fluorescein stained area (NIH ImageJ), average score less than that of the PBS group: 20%
[2]; 0.01, 0.04, 0.1 w/v % ApoA1 tested, DE mice (FIG. 15)
  most effective concentration of ApoA1, corneal epithelial thickness: 0.1 w/v %
[2]; DE mice treated with 0.04 w/v % ApoA1 vs PBS (FIGS. 12 and 13)
  thinning of the cell layers accompanied by detachment of the corneal epithelium: significantly greater in the PBS-treated eyes compared with the ApoA1-treated eyes
[2]; [3]
  conclusion of corneal epithelial thickness experiments: restriction of thinning of corneal epithelium: extremely effective
